From US20200129476A1, “PARP Inhibitor in Combination with a Glucocorticoid and/or Ascorbic Acid and/or a Protein Growth Factor for the Treatment of Impaired Wound Healing” (AKRIBES BIOMEDICAL GMBH, priority 2017, published 2020)
Entries after “also recorded” stand apart in the source; their conditions may differ.

Assays:
[1] = test system: primary human dermal fibroblasts (HDF); test: Primary human dermal fibroblast (HDF) proliferation assay (2D), with or without wound exudate; assay type: cell-based; settings: for HDF proliferation, PARP inhibitor alone: talazoparib 1 μM
Procedure: (§1) Primary human dermal fibroblasts (HDF) were purchased from CELLnTEC, Bern. They were routinely grown in Dulbecco's modified Eagle's medium (DMEM) containing 10% FCS, 2 mM glutamine, and 100 U/ml penicillin/100 μg/ml streptomycin. Media, antibiotics, and glutamine were bought from Lonza. The cells were used at passage 5-15. Cells were trypsinized and seeded at 5000 cells/well in 200 μl into the inner wells of 96-well plates. The outer wells were loaded with sterile water. The cells were allowed to adhere overnight and then incubated for 72 hours at 37° C. under the following conditions: graded compound concentrations or 20 ng/ml PDGF-BB (Tonbo Biosciences) in the absence or presence of different dilutions of sterile-filtered WE in medium. For control samples, 200p1 medium was added instead of specific stimuli. Alternatively, the cells were seeded into 384-well plates at 2500 cells/well directly together with test compounds or growth factors and WE or medium in a total volume of […].
(§2) At the end of the 72-hour incubation period, supernatants were removed for the determination of IL-1ß, and the cells were fixed with 4% paraformaldehyde (Morphisto) for 15 minutes at room temperature and washed 3 times with PBS. A control plate was fixed after the overnight adherence of the cells (day 1) to determine the starting cell number.
Total cellular protein was determined as a measure of cell number by staining the fixed cells with sulforhodamine B (SRB, Sigma). A 0.4% SRB solution in 1% acetic acid was added to the wells for 30 minutes. The wells were then washed with 1 acetic acid until the wash solution remained colorless. After drying, the dye was eluted with 10 mM Tris.HCl, pH8.5, and absorbance was measured either at 550 or 492 nm for lower and higher cell densities, respectively. The average absorbance of the sample representing the day 1 starting cell number (for 96-well plates) was subtracted from the absorbance values of the WE-treated cells.
All experiments were carried out in triplicate for each sample and concentration, and means±standard deviation (SD) were used for the evaluation of the experiment. Results are expressed as percentage of control values for unstimulated cells.
(§3) Low molecular weight compounds (see list in Table 1) were dissolved in DMSO (Bioreagent for cell culture, Sigma) at 10 mM or 100 mM and diluted at least 1:1000 in medium for cellular assays (final DMSO concentration ≤0.1%).
(§4) Cells were incubated with compounds for 72 hours in proliferation assays and up to 8 days for FDM assay (refreshed after 4 days). When compounds were tested for their effect on WE stimulation, the incubation of cells with compounds was started and ended simultaneously with WE-incubation.

[2] = test system: cells; test: Titration to reveal potential toxic effects on cells; assay type: cell-based; settings: titrated on cells
Procedure: Mifepristone, a glucocorticoid and progesterone receptor antagonist, was titrated to reveal potential toxic effects on cells and then used at the well tolerated concentration of 1 μM to counteract glucocorticoid- and progesterone-type compounds (dexamethasone, prednisolone, medroxyprogesterone, etc.). Protein growth factors (see list in Table 1) were dissolved according to the manufacturers' recommendations and used at final concentrations ranging from 0.02 to 1000 ng/ml.

[3] = test system: primary human dermal fibroblasts (HDF); test: Fibroblast-derived matrix (FDM) formation assay (3D), with or without wound exudate; assay type: cell-based; settings: for fibroblast-derived matrix (FDM) formation: presence of WE #78 (FIG. 9)
Procedure: HDF cells were seeded at 5000 cells/well on day −3 into 96-well tissue culture plates (1250 cells/well for 384-well plates), which had been pre-coated for 1 hour at 37° C. with 0.2% gelatin solution (Sigma). When the cells reached confluence (=day 0), a matrix promoting supplement (vitamin C: 2-phospho-L-ascorbic acid trisodium salt, 100 μg/ml; Sigma) was added together with test samples containing PDGF-BB, TGF-ß1 or graded concentrations of compounds −/+WE as described for the HDF proliferation assay. After 4 days, medium was replaced by fresh vitamin C- and stimulus- as well as compound-containing medium, maintaining the conditions initiated on day 0. TGF-ß1 and PDGF-BB were included as positive controls to promote FDM formation and cell growth, respectively. After a total incubation time of 8 days, FDM production was measured in fixed cultures via SRB staining and evaluated as described above. In some cases, the experiment was stopped and evaluated already on day 4.
as §3, with “≤0.1%). Compounds were typically tested in half-logarithmic dilution series (1:3.33), starting at 10 μM or 100 μM as the highest compound concentration.” for “≤0.1%).”
as §4

[4] = test system: IL-1ß; test: IL-1ß secretion by HDF in the presence of wound exudate (ELISA); assay type: cell-based, human; settings: FIG. 22; WE #43 and #78 used with veliparib
Procedure: as §1, §2
IL-1ß levels were determined with a commercial ELISA kit. The amount of IL-1ß contained in the wound exudate added to the cells was subtracted from the total IL-ß in the supernatants in order to determine the cytokine secreted by the cells.

[5] = test system: IL-1α; test: Fibroblast-macrophage coculture with wound exudate: IL-1α; assay type: cell-based, human; settings: WE #78; veliparib 10 μM, talazoparib 0.1 μM
Procedure: CD14^+ monocytes, isolated from PBMC of healthy donors by magnetic bead separation were incubated either alone or in the presence of primary human dermal fibroblasts (CelINTec) or fibroblast-derived matrices (FDM). FDM had been generated from primary human dermal fibroblasts by a 3-week incubation with the growth supplements vitamin C or insulin and EGF (vitamin C: 2-phospho-L-ascorbic acid trisodium salt, 100 μg/ml; human EGF, 5 ng/ml; human insulin, 5 μg/ml). Alternatively, fibroblast monolayer cultures can be used as well. After 4 days to a week to allow for macrophage differentiation in the presence or absence of M-CSF (25 ng/ml), the cultures were stimulated overnight with graded concentrations of test compounds in the absence or presence of various dilutions of sterile-filtered WE. IFN-g (50 ng/ml), LPS (100 ng/ml) and IL-4 (25 ng/ml) or combinations thereof served as controls for M1 and M2 macrophage induction. For negative control samples, medium was added instead of specific stimuli. WE were added to the culture medium for overnight stimulation at dilutions ranging from 1:25 to 1:100.
Supernatants were harvested and frozen for cytokine determination by ELISA, and cells were harvested and subjected to FACS analysis, gating on the monocyte population. Geometric means or mean fluorescence intensities (MFI) were used to quantify surface marker expression. […]

SMILES	reversal of glucocorticoid effects on HDF proliferation ([1]; mifepristone as antagonist, WE present)	well tolerated concentration [2] [µM]	cell proliferation under wound exudate-induced inhibition ([1]; FIG. 22, WE #43 and #78 used with veliparib)	HDF proliferation, PARP inhibitor plus PDGF ([1]; PARP inhibitor dose series + PDGF 20 ng/ml, WE #78 (FIG. 18))	fibroblast (HDF) proliferation ([1]; presence of WE #43)	fibroblast (HDF) proliferation ([1]; presence of WE #78 (diabetic patient))	HDF proliferation ([1]; talazoparib 0.3 μM, WE #78 (FIG. 19))	HDF proliferation, PARP inhibitor plus PDGF ([1]; veliparib 10 μM, talazoparib 1 μM + PDGF 20 ng/ml, WE #78 (FIG. 17B))	HDF proliferation, PARP inhibitor alone ([1]; veliparib 10 μM, WE #78 (FIG. 17B))	HDF proliferation, PARP inhibitor alone ([1]; veliparib 10 μM, absence of WE (FIG. 17A))	fibroblast-derived matrix (FDM) formation [3]	fibroblast-derived matrix (FDM) formation ([3]; listed as Talazoparib)	fibroblast-derived matrix (FDM/ECM) formation ([3]; presence of wound exudate, WE not specified (FIG. 6: microscopy))	IL-1ß secretion induced by wound exudate [4]	IL-1α induced by wound exudate [5]
CC#C[C@]1(O)CC[C@H]2[C@@H]3CCC4=CC(=O)CCC4=C3[C@@H](c3ccc(N(C)C)cc3)C[C@@]21C [mifepristone, Mifepristone]	reversible	1													
Cn1ncnc1[C@H]1c2n[nH]c(=O)c3cc(F)cc(c23)N[C@@H]1c1ccc(F)cc1 [talazoparib]			enhanced cell proliferation	even further enhanced by the addition of PDGF	strongly beneficial effects	strongly beneficial effects; also recorded: dose-dependent increase of HDF proliferation	rescues the cells from the inhibitory effect of the WE; also recorded: rescued the cells from the inhibitory effect of the wound exudate	additively or synergistically enhanced by PDGF	induce proliferation	no or even an inhibitory effect on fibroblasts on their own	strong positive effect	most active of the PARP inhibitors tested in 3D culture	“cleaned up” WE-induced fibroblast matrix inhibition	reducing IL-1ß secretion	reduced
